Test results reported in patent publication US20150352114A1, “MITOTIC KINESIN Eg5 INHIBITING ANTICANCER AGENTS” (THE CLEVELAND CLINIC FOUNDATION, priority 2014, published 2015).

Experiments:
[1] = system: cell lines; settings: cited from earlier work
[2] = system: orthotopic tumor from luciferase-expressing 3691 GSCs; experiment: Orthotopic GBM xenograft model with systemic ispinesib; type: in vivo, mice
Method: The tumor was isolated 5 hours later and processed for immunofluorescence to βtubulin with the nuclei counterstained with DAPI. […] 7 days later when positive luminescence signal indicated tumor burden, mice were randomized into one of two treatment groups; vehicle only (DMSO; n=10) or 10 mg/kg ispinesib (n=10) administered on a q4d×6 dosing schedule. Arrows indicate day of vehicle or drug administration.
Subcutaneous or intracranial tumors were fixed overnight in 4% PFA at 4° C., washed in PBS, cryoprotected in 30% sucrose, then embedded in optimal cutting temperature compound (OCT) and stored at −80° C. […] Sections were cut using a LeicaCMXXXX cryostat at 10 μm directly onto slides (Leica Microsystems Inc., Buffalo Grove, Ill.). Sections were postfixed for 15 minutes at room temperature in 4% PFA followed by PBS washes then incubated in blocking solution (5% goat serum, 0.1% Triton X-100 in PBS). Primary antibodies were diluted in blocking solution and used as follows overnight at 4° C.: Sox2 (rabbit, 1:500, Abcam, Cambridge, Mass., USA), atubulin (rat, 1:1000, AbD Serotec, Raleigh, N.C.). Secondary antibodies were Alexa Fluor (1:500, Invitrogen, Grand Island, N.Y., USA) labeled with 488 mixed in blocking solution and incubated for 2 hours at room temperature. DNA was stained using 4′,6-diamidino-2-phenylindole (DAPI, 10 μg/ml, Sigma, St Louis, Mo., USA) diluted in PBS for 5 minutes at room temperature.
To evaluate the efficacy of Eg5 inhibition in a more clinically relevant system, we utilized an orthotopic xenograft model to systemically deliver ispinesib. […] The tumor was sectioned and probed for tubulin to evaluate for the presence of mono-astral spindles, a hallmark of Eg5 inhibition.

[3] = system: 08-387 GSCs; experiment: Transwell in vitro invasion assay; type: cell-based, human
Method: 08-387 GSCs enriched in G1 (8 hours post final thymidine release) were pre-exposed to vehicle or ispinesib (200 to 0 nM at a two-fold dilution) for one hour prior to being seeded onto Matrigel coated FluoroBlok Cell Culture Inserts at 125,000 cells per insert (±vehicle or ispinesib, plated in triplicate) with Neurobasal media supplemented with 10% FBS in the lower reservoir (BD Falcon, Franklin Lakes, N.J.). After 8 hours, membranes were processed for analysis with nuclei stained with DAPI. Nuclei on the lower surface of the membrane within the central field were scored using the 20× objective on a Leica DMIRB inverted microscopes.

[4] = system: GSCs from patient derived xenograft 08-387; experiment: Measurement of microtubule dynamics, EB1-EGFP; type: cell-based, human; settings: 200 nM; 7 hours
Method: GSCs from patient derived xenograft 08-387 were cultured in Neurobasal Media, as previously described. Cells were plated on tissue culture dishes coated with GelTrex (Gibco®, Life Technologies, Carslbad, Calif.) and transfected with EB1-EGFP plasmid using FuGene® HD transfection reagent (Promega Corporation, Madison, Wis.) in a 3:1 (FuGene:DNA) ratio. Cells were transferred to GelTrex-coated 35 mm No. 1.5 glass MatTek dishes (MatTek Corporation, Ashland, Mass.) at a density of 50,000 cells per dish 48 hours following transfection, and allowed to adhere overnight prior to imaging. Dynamics measurements were obtained at 30 minutes and 7 hours following addition of vehicle (DMSO) or ispinesib (200 nM) to cell culture media.
Streaming time-lapse images of EB1-EGFP-expressing cells were acquired at 300 ms per frame for 1 minute (200 total frames) at using a Nikon TiE epifluorescence microscope (Nikon Instruments Inc., Melville, N.Y.) equipped with a Zyla 5.5 sCMOS camera (Andor Technology Ltd., Belfast, Ireland) under control of NIS Elements software (Nikon). Fluorescence illumination during imaging was provided by a SpectraX Light Engine® (Lumencor Inc., Beaverton, Oreg.) and a GFP/mCherry filter set (Chroma Technology Corp., Bellows Falls, Vt.). […]

[5] = system: NSTCs; experiment: Dose response cell viability, CellTiter-Glo ATP-based assay, NSTCs; settings: Homo sapiens, 0 to 32 nM, 72 hours
Excerpt: (§1) Human tissues were acquired from primary human brain tumor patient specimens in accordance with appropriate approved Institutional Review Board protocols. Tumor grade and available cytogenetic information for each specimen has been previously described. Tumor specimens were maintained through subcutaneous xenografts in the flanks of athymic Nu/Nu or NSG mice. Tumors were dissociated using a papain dissociation system (Worthington Biochemical, Lakewood, N.J.). […]
(§2) The half maximal effective concentration of ispinesib for acutely dissociated and MACS sorted matched GSCs and NSTCs was determined by plating, in triplicate, 1,000 cells per well of a 96 well plate pre-coated with GelTrex in growth-factor free Neuralbasal media. […] Viability was measured at 72 hours using CellTiter-Glo ATP-based assay (Promega, Madison, Wis.) read on a luminometer (Perkin-Elmer, Waltham, Mass.). […] The next day, cells were exposed to 3 nM ispinesib or vehicle (DMSO) and viability was measured daily for 5 days using CellTiter-Glo. Day 0 reading were taken immediately after addition of drug or vehicle. SubG1 for GSCs and NSTCs was determined by flow cytometry for propidium iodide and gated as the events below the 2N G1 peak of the resulting histogram. […] Cells were fixed at Day 0 through Day 4 in 100% cold ethanol and simultaneously processed for flow analysis with 20,000 events analyzed per condition.

[6] = system: glioblastoma stem cells (GSCs); experiment: Dose response cell viability, CellTiter-Glo ATP-based assay, GSCs; settings: Homo sapiens, 0 to 32 nM, 72 hours
Excerpt: as §1, §2

In the case of `Cc1ccc(C(=O)N(CCCN)[C@@H](c2nc3cc(Cl)ccc3c(=O)n2Cc2ccccc2)C(C)C)cc1` [ispinesib, N-(3-amino-propyl)-n-[R-1-(3-benzyl-7-choloro-4-oxo-3,4-dihydroquinazolin-2-yl)-2-methyl-propyl]-4-methyl-benzamide methanesulfonate], the “efficacy in cell lines tested” value [1] is given as “nanomolar efficacy”, the median survival ([2]; 10 mg/kg q4d×6 intraperitoneal) is given as 36 days and the survival versus vehicle ([2]; 10 mg/kg q4d×6 intraperitoneal, p<0.001) is given as “significant survival advantage”. For the same molecule, the “mono-astral spindles in intracranial tumor” value ([2]; single 10 mg/kg dose, tumor harvested 5 hours later) was “numerous cells with mono-astral spindles”, the “fewer cells migrated per field compared to vehicle control” value ([3]; 200 nM) was “approximately 6 fold” and the EC50 ([3]; Homo sapiens, 8 h, read-out: EC50, Transwell migration) was 67.2 nM. For the same molecule, the Transwell migration ([3]; interphase-enriched cells, 8 hours) was “completely block”, the EB1 comet velocity [4] was “significant increase” and the microtubule growth times [4] was “reduced microtubule growth times”. For the same molecule, the EC50 [5] was 1.79 ± 0.22 nM and the EC50 [6] was 1.15 ± 0.35 nM.
